According to ChEMBL document CHEMBL2169777, “Chemical modulators working at pharmacological interface of target proteins” (Bioorg Med Chem, 2012):

What was measured:
[1] = Inhibition of IL2 receptor binding to IL2 alpha receptor by scintillation proximity assay
Beta-nerve growth factor = Beta-nerve growth factor (Homo sapiens, UniProt P01138); test: Inhibition of NGF binding to p75NTR
Chain of Beta-nerve growth factor (P01138 122-241 limits assumed): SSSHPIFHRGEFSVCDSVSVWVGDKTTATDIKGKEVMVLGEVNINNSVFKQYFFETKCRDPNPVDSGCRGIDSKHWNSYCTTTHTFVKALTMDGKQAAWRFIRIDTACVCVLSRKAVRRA

COC(=O)[C@H](Cc1ccc(C#Cc2ccccc2)cc1)NC(=O)C[C@H]1CCCN(C(=N)N)C1
IC50 [1]: 3000 nM

CC(C)C[C@@H](NC(=N)N)C(=O)NCC(=O)N1CCC(c2cc(-c3ccc(OCc4ccc(C(=O)O)o4)c(Cl)c3Cl)nn2C)CC1
Ki [1]: 60 nM

Cc1cc2nc3c(=O)[nH]c(=O)nc-3n(C)c2cc1C=O
IC50 (Beta-nerve growth factor): 1000 nM
